Measured values reported in PubChem BioAssay (NCI).
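Cells were grown in 96-well plates and exposed to each compound for 48 hours at five concentrations; endpoints were interpolated linearly between bracketing concentrations, or set to the highest concentration if not reached. GI50 is the concentration that inhibits growth by half. TGI: total growth inhibition.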

How the values were obtained:
Assay in all cases: NCI anticancer screen, dose series, 48 h
SK-MEL-28 melanoma = system: SK-MEL-28 melanoma
HCC-2998 colon = system: HCC-2998 colon
NCI-H460 lung = system: NCI-H460 lung
SF-295 CNS = system: SF-295 CNS
HOP-92 NSCLC = system: HOP-92 NSCLC
MCF7 breast = system: MCF7 breast
HOP-62 NSCLC = system: HOP-62 NSCLC
SNB-19 CNS = system: SNB-19 CNS
ACHN renal = system: ACHN renal
SN12C renal = system: SN12C renal
MDA-MB-231 breast = system: MDA-MB-231 breast
OVCAR-5 ovarian = system: OVCAR-5 ovarian
NCI-H522 lung = system: NCI-H522 lung
MDA-N = system: MDA-N
RPMI-8226 leukemia = system: RPMI-8226 leukemia
M14 melanoma = system: M14 melanoma
HCT-15 colon = system: HCT-15 colon
LOX IMVI melanoma = system: LOX IMVI melanoma
BT-549 breast = system: BT-549 breast
CCRF-CEM leukemia = system: CCRF-CEM leukemia
CAKI-1 renal = system: CAKI-1 renal
SF-268 CNS = system: SF-268 CNS
UO-31 renal = system: UO-31 renal
PC-3 prostate = system: PC-3 prostate
A549 NSCLC = system: A549 NSCLC
SK-OV-3 ovarian = system: SK-OV-3 ovarian
SF-539 CNS = system: SF-539 CNS
HCT-116 colon = system: HCT-116 colon
HT29 colon = system: HT29 colon
T-47D breast = system: T-47D breast
NCI/ADR-RES ovarian = system: NCI/ADR-RES ovarian
OVCAR-3 ovarian = system: OVCAR-3 ovarian
SNB-75 CNS = system: SNB-75 CNS
TK-10 renal = system: TK-10 renal
RXF 393 renal = system: RXF 393 renal
NCI-H23 lung = system: NCI-H23 lung
786-0 renal = system: 786-0 renal
EKVX NSCLC = system: EKVX NSCLC
SR leukemia = system: SR leukemia
UACC-257 melanoma = system: UACC-257 melanoma
A498 renal = system: A498 renal
SW-620 colon = system: SW-620 colon
NCI-H226 lung = system: NCI-H226 lung
MALME-3M melanoma = system: MALME-3M melanoma
COLO 205 colon = system: COLO 205 colon
SK-MEL-5 melanoma = system: SK-MEL-5 melanoma
U251 CNS = system: U251 CNS
HL-60(TB) leukemia = system: HL-60(TB) leukemia
K-562 leukemia = system: K-562 leukemia
MOLT-4 leukemia = system: MOLT-4 leukemia
KM12 colon = system: KM12 colon
HS 578T breast = system: HS 578T breast
MDA-MB-435 = system: MDA-MB-435
IGROV1 ovarian = system: IGROV1 ovarian
OVCAR-4 ovarian = system: OVCAR-4 ovarian
OVCAR-8 ovarian = system: OVCAR-8 ovarian
DU-145 prostate = system: DU-145 prostate
UACC-62 melanoma = system: UACC-62 melanoma
SK-MEL-2 melanoma = system: SK-MEL-2 melanoma

Cc1ccc(N=Nc2c3c(c(O)c4ccccc24)CCC(C)(C)O3)cc1
TGI (SK-MEL-28 melanoma): 42.1 µM | TGI (HCC-2998 colon): 34.3 µM | TGI (NCI-H460 lung): 32.8 µM | TGI (SF-295 CNS): 28.8 µM | TGI (HOP-92 NSCLC): > 100 µM | TGI (MCF7 breast): 27.2 µM | TGI (HOP-62 NSCLC): 36.6 µM | TGI (SNB-19 CNS): 42.7 µM | TGI (ACHN renal): 62.1 µM | TGI (SN12C renal): 28.5 µM | TGI (MDA-MB-231 breast): > 100 µM | TGI (OVCAR-5 ovarian): 34.8 µM | TGI (NCI-H522 lung): > 100 µM | TGI (MDA-N): 14.1 µM | TGI (RPMI-8226 leukemia): > 100 µM | TGI (M14 melanoma): 32.6 µM | TGI (HCT-15 colon): 67.3 µM | TGI (LOX IMVI melanoma): 28.6 µM | TGI (BT-549 breast): 58.7 µM | TGI (CCRF-CEM leukemia): 39.6 µM | TGI (CAKI-1 renal): > 100 µM | TGI (SF-268 CNS): > 100 µM | TGI (UO-31 renal): 73.3 µM | TGI (PC-3 prostate): > 100 µM | TGI (A549 NSCLC): 31.8 µM | TGI (SK-OV-3 ovarian): > 100 µM | TGI (SF-539 CNS): > 100 µM | TGI (HCT-116 colon): 49.2 µM | TGI (HT29 colon): 35.7 µM | TGI (T-47D breast): 60.3 µM | TGI (NCI/ADR-RES ovarian): > 100 µM | TGI (OVCAR-3 ovarian): 62.4 µM | TGI (SNB-75 CNS): 36 µM | TGI (TK-10 renal): 88.5 µM | TGI (RXF 393 renal): > 100 µM | TGI (NCI-H23 lung): 28.6 µM | TGI (786-0 renal): > 100 µM | TGI (EKVX NSCLC): 75.3 µM | TGI (SR leukemia): 38.8 µM | TGI (UACC-257 melanoma): 23 µM | TGI (A498 renal): 38.6 µM | TGI (SW-620 colon): > 100 µM | TGI (NCI-H226 lung): > 100 µM | TGI (MALME-3M melanoma): 21.6 µM | TGI (COLO 205 colon): 62.8 µM | TGI (SK-MEL-5 melanoma): 15.7 µM | TGI (U251 CNS): > 100 µM | TGI (HL-60(TB) leukemia): 49.7 µM | TGI (K-562 leukemia): > 100 µM | TGI (MOLT-4 leukemia): > 100 µM | TGI (KM12 colon): 55.7 µM | TGI (HS 578T breast): 84.4 µM | TGI (MDA-MB-435): 31.7 µM | TGI (IGROV1 ovarian): > 100 µM | TGI (OVCAR-4 ovarian): 44.5 µM | TGI (OVCAR-8 ovarian): > 100 µM | TGI (DU-145 prostate): 26 µM | TGI (UACC-62 melanoma): 28.1 µM | TGI (SK-MEL-2 melanoma): 36.7 µM

NC(CO)Cc1cnc[nH]1 (stereo unspecified)
GI50 (SK-MEL-28 melanoma): > 100 µM | TGI (SK-MEL-28 melanoma): > 100 µM | GI50 (HCC-2998 colon): > 100 µM | TGI (HCC-2998 colon): > 100 µM | GI50 (NCI-H460 lung): > 100 µM | TGI (NCI-H460 lung): > 100 µM | GI50 (SF-295 CNS): > 100 µM | TGI (SF-295 CNS): > 100 µM | TGI (HOP-92 NSCLC): > 10 µM | GI50 (MCF7 breast): > 100 µM | TGI (MCF7 breast): > 100 µM | GI50 (HOP-62 NSCLC): > 100 µM | TGI (HOP-62 NSCLC): > 100 µM | GI50 (SNB-19 CNS): > 100 µM | TGI (SNB-19 CNS): > 100 µM | GI50 (ACHN renal): > 100 µM | TGI (ACHN renal): > 100 µM | GI50 (SN12C renal): > 100 µM | TGI (SN12C renal): > 100 µM | TGI (MDA-MB-231 breast): > 100 µM | TGI (OVCAR-5 ovarian): > 100 µM | TGI (NCI-H522 lung): > 100 µM | GI50 (MDA-N): > 100 µM | TGI (MDA-N): > 100 µM | GI50 (RPMI-8226 leukemia): > 100 µM | TGI (RPMI-8226 leukemia): > 100 µM | TGI (M14 melanoma): > 100 µM | GI50 (HCT-15 colon): > 100 µM | TGI (HCT-15 colon): > 100 µM | GI50 (LOX IMVI melanoma): > 100 µM | TGI (LOX IMVI melanoma): > 100 µM | TGI (BT-549 breast): > 100 µM | GI50 (CCRF-CEM leukemia): > 100 µM | TGI (CCRF-CEM leukemia): > 100 µM | TGI (CAKI-1 renal): > 100 µM | GI50 (SF-268 CNS): > 100 µM | TGI (SF-268 CNS): > 100 µM | GI50 (UO-31 renal): > 100 µM | TGI (UO-31 renal): > 100 µM | GI50 (PC-3 prostate): > 100 µM | TGI (PC-3 prostate): > 100 µM | GI50 (A549 NSCLC): > 100 µM | TGI (A549 NSCLC): > 100 µM | GI50 (SK-OV-3 ovarian): > 100 µM | TGI (SK-OV-3 ovarian): > 100 µM | GI50 (SF-539 CNS): > 100 µM | TGI (SF-539 CNS): > 100 µM | GI50 (HCT-116 colon): > 100 µM | TGI (HCT-116 colon): > 100 µM | GI50 (HT29 colon): > 100 µM | TGI (HT29 colon): > 100 µM | GI50 (T-47D breast): > 100 µM | TGI (T-47D breast): > 100 µM | GI50 (NCI/ADR-RES ovarian): > 100 µM | TGI (NCI/ADR-RES ovarian): > 100 µM | GI50 (OVCAR-3 ovarian): > 100 µM | TGI (OVCAR-3 ovarian): > 100 µM | GI50 (SNB-75 CNS): > 100 µM | TGI (SNB-75 CNS): > 100 µM | GI50 (TK-10 renal): > 100 µM | TGI (TK-10 renal): > 100 µM | TGI (RXF 393 renal): > 10 µM | GI50 (NCI-H23 lung): > 100 µM | TGI (NCI-H23 lung): > 100 µM | GI50 (786-0 renal): > 100 µM | TGI (786-0 renal): > 100 µM | GI50 (EKVX NSCLC): > 100 µM | TGI (EKVX NSCLC): > 100 µM | GI50 (SR leukemia): > 100 µM | TGI (SR leukemia): > 100 µM | TGI (UACC-257 melanoma): > 100 µM | GI50 (A498 renal): > 100 µM | TGI (A498 renal): > 100 µM | GI50 (SW-620 colon): > 100 µM | TGI (SW-620 colon): > 100 µM | GI50 (NCI-H226 lung): > 100 µM | TGI (NCI-H226 lung): > 100 µM | GI50 (MALME-3M melanoma): > 100 µM | TGI (MALME-3M melanoma): > 100 µM | GI50 (COLO 205 colon): > 100 µM | TGI (COLO 205 colon): > 100 µM | GI50 (SK-MEL-5 melanoma): > 100 µM | TGI (SK-MEL-5 melanoma): > 100 µM | GI50 (U251 CNS): > 100 µM | TGI (U251 CNS): > 100 µM | GI50 (HL-60(TB) leukemia): > 100 µM | TGI (HL-60(TB) leukemia): > 100 µM | GI50 (K-562 leukemia): > 100 µM | TGI (K-562 leukemia): > 100 µM | GI50 (MOLT-4 leukemia): > 100 µM | TGI (MOLT-4 leukemia): > 100 µM | GI50 (KM12 colon): > 100 µM | TGI (KM12 colon): > 100 µM | GI50 (HS 578T breast): > 100 µM | TGI (HS 578T breast): > 100 µM | GI50 (MDA-MB-435): > 100 µM | TGI (MDA-MB-435): > 100 µM | GI50 (IGROV1 ovarian): > 100 µM | TGI (IGROV1 ovarian): > 100 µM | TGI (OVCAR-4 ovarian): > 10 µM | GI50 (OVCAR-8 ovarian): > 100 µM | TGI (OVCAR-8 ovarian): > 100 µM | TGI (DU-145 prostate): > 100 µM | GI50 (UACC-62 melanoma): > 100 µM | TGI (UACC-62 melanoma): > 100 µM | GI50 (SK-MEL-2 melanoma): > 100 µM | TGI (SK-MEL-2 melanoma): > 100 µM
